B1: 5'-FAM c-Fos 11-mer ARE RNA (ssRNA)
RNA: AUUUUUAUUUU
B2: unlabeled c-Fos 11-mer ARE RNA (ssRNA)
RNA: AUUUUUAUUUU

This note sets out measurements from paper PMC4577092, “Identification of Small-Molecule Inhibitors of the HuR/RNA Interaction Using a Fluorescence Polarization Screening Assay Followed by NMR Validation” (PLoS ONE, 2015).

The target of one data set is T1, HuR (Homo sapiens, UniProt Q15717).
T1 construct: Full length (residue 1–326), RRM1-2 (residue 1–190); inferred from pET14b vector and metal chelation chromatography) (N); made in house; host or cells: E. coli BL21 Rosetta
T1 sequence (Q15717 whole entry): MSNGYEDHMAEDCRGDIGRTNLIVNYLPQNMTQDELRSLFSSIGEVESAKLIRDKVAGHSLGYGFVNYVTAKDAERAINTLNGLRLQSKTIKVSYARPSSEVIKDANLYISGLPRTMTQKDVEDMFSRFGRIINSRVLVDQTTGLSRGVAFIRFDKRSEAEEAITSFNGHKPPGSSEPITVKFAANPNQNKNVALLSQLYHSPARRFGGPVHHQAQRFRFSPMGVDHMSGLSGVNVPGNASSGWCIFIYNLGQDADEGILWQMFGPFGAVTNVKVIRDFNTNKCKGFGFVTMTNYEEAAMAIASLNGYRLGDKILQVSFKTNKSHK
Description: Fluorescence polarization (FP) competition / dose-response assay of HuR/RNA interaction. The following applies: 10nM RNA and 50nM HuR, compounds serially diluted from 250uM. It counts as binding. Here is the method: Fluorescence polarization measurements were performed in the 384-well plate format on a Biotek Synergy2 plate reader using 480/20nm excitation and 520/20nm emission filters. The NCI diversity set V library containing 1597 compounds was screened in this study. All samples were dissolved in phosphate buffer (50mM Napi, and 100mM NaCl, 5mM TCEP at pH 7.0). The assay mixture contained 50nM HuR and 10nM RNA to yield FP values approximately 80% of the maximum value observed for fully bound RNA. NCI diversity set V library in 96-well format (10mM stock in DMSO) was transferred to 384-well plate, and then diluted into 50uM in phosphate buffer. 5ul of 50uM compound stock was added to 20 ul assay mixture to yield 10uM final compound concentration.
We first characterized the binding of the full-length HuR with 11-mer polyribonucleotide derived from the 3’ UTR of the mRNA of the C-fos oncogene (Fig 1A). The binding curves were obtained by keeping the 5’FAM-RNA at 10 nM and adding increasing amounts of HuR. The apparent dissociation constant for the HuR/RNA binding was estimated to be approximately 20 nM (Fig 1A) using the simplified equation as described. To evaluate the expected effect of the inhibitors on the FP readout of the essay, we measured displacement of the fluorescently labeled RNA by the unlabeled RNA (Fig 1B). In displacement assay, the 10nM of 5’FAM-RNA concentration was mixed with 50nM at which fluorescence polarization value was approximately 80% of the maximal value. Fluorescence polarization was measured as a function of the unlabeled RNA concentration. IC50 was obtained (~40nM) by fitting to the equation specified in the figure legend (Fig 1B)
Supplementary file pone.0138780.s002.tif: S2 Fig Dose responses of hits on confirmed hits from primary screening. Compounds at 250uM in final concentration in the assay volume of 25uL were added to the mixture of 10nM RNA and 50nM HuR in the first well in 384 format plate followed by a serial dilution into next well where the concentration of RNA and HuR was kept constant. (TIF) Click here for additional data file.
Supplementary file pone.0138780.s010.doc: S1 Table IC50 for confirmed hits from primary HTS screening. IC50s were obtained by fitting to the equation of ΔP = ΔPmax/(1+10^((Logx0-X)*p)). (DOC) Click here for additional data file.
A general note: Polarisation of emitted light reports the rotation of a fluorescent probe.
One may read the IC50 as the point on the concentration scale where inhibition reaches its midpoint. Consider `Cc1ccc(Nc2ccc(N)cc2S(=O)(=O)O)cc1` [C2], for which the half-maximal inhibitory concentration (IC50) was 41 µM.
As for `O=C(O)c1cc(N2C(=O)C=CC2=O)cc(N2C(=O)C=CC2=O)c1` [C3], the half-maximal inhibitory concentration (IC50) amounted to 26.9 µM.
As for `O=C(Nc1cccc([N+](=O)[O-])c1)c1ccc2ccccc2c1O` [C4], the half-maximal inhibitory concentration (IC50) came out at 97.4 µM.
On to `O=C(O)C1=NN(c2cc(Cl)c(S(=O)(=O)O)cc2Cl)C(=O)C1` [C5], for which the IC50 was 16.7 µM.
Take `CSc1nc(N)c(N=Nc2ccc([As](=O)(O)O)cc2)c(=O)[nH]1` [C6]: the IC50 was found to be 2.7 µM.
In the case of `CCOC(=O)C(=O)Cc1cccnn1` [C7], the IC50 is 4.6 µM.
For the molecule `CC#CC#Cc1cccc(=O)o1` [C8], the half-maximal inhibitory concentration (IC50) was found to be 44.4 µM.
For `COC(=O)CC1OCC=C2CN3CCC45C6=CC(=O)C(=O)C([N+](=O)[O-])=C6NC4C1C2CC35` (stereo not drawn) [C9], the IC50 turned out to be 69.6 µM.
For the molecule `COc1cccc2c1C(=O)c1c(O)c3c(c(O)c1C2=O)CC(O)(/C(C)=N/O)CC3OC1CC(N)C(O)C(C)O1` (stereo not drawn) [C10], the 50% inhibitory concentration (IC50) is 21.7 µM.
As for `CO[C@@H]1[C@@H](OC(=O)c2ccc(C)[nH]2)[C@@H](O)[C@H](Oc2ccc3c(O)c(NC(=O)c4ccc(O)c(CC=C(C)C)c4)c(=O)oc3c2Cl)OC1(C)C` [C11], the IC50 came to 41.9 µM.
For the molecule `COCC(=O)OC1CCn2c1nc1c2C(=O)C(C)=C(NC(C)=O)C1=O` (stereo not drawn) [C12], the IC50 was 17.4 µM.

For the next data set, the target named is T2, Full length HuR (Homo sapiens, UniProt Q15717).
T2 construct: Full length (residue 1–326), RRM1-2 (residue 1–190); inferred from pET14b vector and metal chelation chromatography) (N); made in house; host or cells: E. coli BL21 Rosetta
T2 sequence (Q15717 whole entry): as above
The data set can be described thus: Sedimentation velocity analytical ultracentrifugation (AUC) of HuR dimer/oligomer. Type of data set: biochemical. The settings on record: 10uM HuR and 20uM compounds. Here is the method:
Sedimentation velocity analytical ultracentrifugation was performed on a Beckman XLA analytical ultracentrifuge using an AN50 Ti rotor with standard Epon 2-channel centerpieces. The samples were spun at 25000rpm for~12hrs at 20 C. 25 scans measuring absorbance at 280nm were collected. The data were analyzed using Ultrascan III software.
Supplementary file pone.0138780.s005.tif: S5 Fig Post-hit validation using analytical ultracentrifugation (AUC). Sedimentation velocity studies are informative of the overall shape of molecule. […] We tested 4 compounds from secondary screening. 30% and 50% fraction of boundary were in orange. […] (TIF) Click here for additional data file.
As for `Cc1ccc(Nc2ccc(N)cc2S(=O)(=O)O)cc1` [C2], the “effect on formation of HuR dimer/oligomer (shift of boundary toward monomer)” value is “did not”.
Take `CC#CC#Cc1cccc(=O)o1` [C8]: the “effect on formation of HuR dimer/oligomer (shift of boundary toward monomer)” value is recorded as “did not”.

For a further data set, the target named is T3, HuR full length (UniProt Q15717 1-326). The data set can be described thus: fluorescence polarization; 10 nM RNA; apparent Kd; FP: 50 mM Na phosphate, 100 mM NaCl, 5 mM TCEP, pH 7.0, 384-well plate; temperature not stated; NMR conditions not in material. The following applies: protein: recombinant; (pET14b, metal chelation); label: 5'-FAM; single strand.
T3 sequence (Q15717 whole entry): as above
Regarding B1, the Kd was roughly 20 nM.

A further data set deals with T3, HuR full length. Description: competition (fluorescence polarization); displacement of 10 nM 5'-FAM RNA (N1) from 50 nM HuR; FP: 50 mM Na phosphate, 100 mM NaCl, 5 mM TCEP, pH 7.0, 384-well plate; temperature not stated; NMR conditions not in material. The following applies: protein: recombinant; (pET14b, metal chelation); single strand.
On to B2, for which the IC50 was roughly 40 nM.
